Measurements: paper PMC5748856 (The Journal of Experimental Medicine, 2018)
“Also recorded” adds a separate entry of the source. Ends that are not written are not given here.

Experiments:
[1] = biological target: purified HLA-A*02:01 (Homo sapiens, UniProt P04439, D140Y/D185E/D98H/E176V/E277Q/G131W/G231S/I119V/I121R/I166T/I218V/L300P/L318F/N151K/N90K/P208A/P217A/Q86G/Q94H/R138H/R169H/T345S); settings: for HLA-A*02:01 binding (in words): relative to H3.3K27M, cell-free binding assay, performed once (Fig. 4 A)
[2] = biological target: HLA-A*02:03 (human); test: radioligand binding

Row | Molecule | HLA-A*02:01 binding (in words) [1] | also measured
1 | RKSAPSTGGV [H3.3WT, reference compound] | – | IC50 [1]: > 38.7 µM
2 | RMSAPATGGV [A6] | abrogated; also recorded: diminished | –
3 | XMSAPSTGGV [Cit H3.3] | partially retains its affinity | –
4 | RMSAPSTGGV [H3.3K27M_(26–35) peptide] | – | IC50 [2]: 747 nM
